In this test the test system is Candida albicans. Put plainly: Antifungal activity against Candida albicans ATCC 10231 after 24 hrs by broth microdilution method. The following applies: ATCC 10231, 24 h.

The source of these data is ChEMBL document CHEMBL1156571, “ent-kaurane diterpenoids from the liverwort Jungermannia atrobrunnea” (2008).

Molecules are shown by their SMILES. ≈ marks a conversion by molar mass, not a printed value.

What is called MIC is the lowest concentration found to suppress growth. A low value points to inhibition by little substance.

For the molecule `C=C1[C@H]2CC3=C[C@H](OC(C)=O)[C@@H]4C(C)(C)CC[C@H](OC(C)=O)[C@@]4(C)[C@@]34OO[C@]1(O)[C@H]4[C@H]2O` [JUNGERMATROBRUNIN A], the MIC is 128 mg/L (≈ 285 µM).
Consider `CC(=O)O[C@H]1C[C@@]23C[C@@H](C(=O)C=C2[C@]2(C)[C@@H](OC(C)=O)CCC(C)(C)[C@@H]12)[C@@H](C)C3=O`, for which the MIC is 128 mg/L (≈ 307 µM).
For `C=C1C(=O)[C@@H]2C3=C(C[C@H]1[C@@H]2O)C[C@H](O)[C@@H]1C(C)(C)CC[C@H](OC(C)=O)[C@@]31C`, the MIC came out at 128 mg/L (≈ 342 µM).
In turn, `C=C1C(=O)[C@@]23C[C@H](OC(C)=O)[C@@H]4C(C)(C)CC[C@H](OC(C)=O)[C@@]4(C)C2=C[C@@H](O)[C@@H]1C3` gave an MIC of 128 mg/L (≈ 307 µM).
`C=C1C(=O)[C@]23C[C@H]1C(=O)C=C2[C@]1(C)[C@@H](OC(C)=O)CCC(C)(C)[C@H]1[C@@H](OC(C)=O)C3` showed an MIC of 128 mg/L (≈ 309 µM).
`C=C1C(=O)[C@@]23C[C@H](OC(C)=O)[C@@H]4C(C)(C)CC[C@H](O)[C@@]4(C)C2=C[C@@H](O)[C@@H]1C3` gave a minimum inhibitory concentration (MIC) of 128 mg/L (≈ 342 µM).
In the case of `C=C1C(=O)[C@@H]2C3=C(C[C@H](OC(C)=O)[C@@H]4C(C)(C)CC[C@H](OC(C)=O)[C@@]34C)C[C@H]1[C@@H]2O`, the lowest concentration to inhibit growth (MIC) was 128 mg/L (≈ 307 µM).
In turn, `C=C1[C@H]2C[C@@]3(C[C@H](OC(C)=O)[C@@H]4C(C)(C)CCC[C@@]4(C)C3=CC2=O)[C@@H]1OC(C)=O` returned an MIC of 128 mg/L (≈ 320 µM).
`C=C1[C@@H]2CC=C3[C@](C2)(C[C@H](OC(C)=O)[C@@H]2C(C)(C)CCC[C@@]32C)[C@@H]1OC(C)=O` displayed an MIC of 128 mg/L (≈ 331 µM).
In the case of `C=C1[C@@H]2CC=C3[C@](C2)(C[C@H](O)[C@@H]2C(C)(C)CCC[C@@]32C)[C@@H]1OC(C)=O`, inhibition of growth (MIC) required 128 mg/L (≈ 372 µM).
